Reference: patent publication US9738607B2, “Scalable process for the preparation of Sorafenib tosylate ethanol solvate and Sorafenib tosylate form III” (F.I.S.—FABBRICA ITALIANA SINTETICI S.P.A, priority 2015, dated 2017)

Tests used:
[1] = Stability studies of Sorafenib tosylate form III (humidity/temperature storage); type: physicochemical; conditions: form III obtained from methanol solvate
Protocol: Stability studies of the free Sorafenib tosylate form III were already performed. These studies indicate that form III remained stable 3 months under accelerated conditions of ICH guideline (40° C.-70% RH) and less than 7 months at RT under 94% RH, while it remained stable at least 7 month at RT under 60% RH.
As the stability study of Sorafenib tosylate form III was performed with Sorafenib tosylate form III obtained from Sorafenib tosylate methanol solvate, only a minor difference in behavior could be possible with this new solid.

[2] = Stability study of Sorafenib hemi-tosylate monohydrate under four humidity/temperature conditions, XRPD; type: physicochemical
Protocol: Four different humidity/temperature conditions were selected for this study: • Humidity (60% RH) at room temperature, • High humidity (94% RH) at room temperature, • Accelerated conditions of ICH guidelines (40° C.-70% RH), • 80° C. under vacuum.
Karl-Fischer and DSC/TGA analyses confirmed that Sorafenib hemi-tosylate is a monohydrate (water content 3.9% for KF and 2.7% for TGA—3.1% calc. for a monohydrate). This form was previously characterized in WO2009/092070 but, as Karl-Fischer and TGA were not performed, the presence of water in this crystalline form was not mentioned. […] However, at 80° C. under vacuum, traces of SORAFENIB free base were detected after almost three months.

Row | Compound | time form III remained stable ([1]; RT under 60% RH) | time form III remained stable ([1]; RT under 94% RH) | time form III remained stable ([1]; accelerated conditions of ICH guideline (40° C.-70% RH)) | time remained stable ([2]; 60% RH at room temperature) | time remained stable ([2]; 70% RH at 40° C.) | time remained stable ([2]; 94% RH at room temperature) | crystalline changes by XRPD ([2]; after 88 days at 80° C. under vacuum) | crystalline changes by XRPD ([2]; after 119 days at 60% RH at room temperature) | crystalline changes by XRPD ([2]; after 119 days at 70% RH at 40° C.) | crystalline changes by XRPD ([2]; after 119 days at 94% RH at room temperature)
1 | CNC(=O)c1cc(Oc2ccc(NC(=O)Nc3ccc(Cl)c(C(F)(F)F)c3)cc2)ccn1.Cc1ccc(S(=O)(=O)O)cc1 [Sorafenib tosylate form III, 4-[4-({[4-chloro-3-(trifluoromethyl)phenyl]carbamoyl}amino)phenoxy]-N-methylpyridine-2-carboxamide 4-methylbenzenesulfonate (1:1)] | at least 7 month | less than 7 months | 3 months | – | – | – | – | – | – | –
2 | CNC(=O)c1cc(Oc2ccc(NC(=O)Nc3ccc(Cl)c(C(F)(F)F)c3)cc2)ccn1.Cc1ccc(S(=O)(=O)O)cc1 [Sorafenib hemi-tosylate] | – | – | – | at least four | at least four | at least four | traces of Sorafenib free base were observed | No crystalline changes were detected | No crystalline changes were detected | No crystalline changes were detected
